Assays:
[1] = Methylcobalamin-containing solutions; format: physicochemical
[2] = Methylcobalamin-containing solutions; format: physicochemical; remark: listed apart in the source
Description: A variety of solutions containing methylcobalamin (Me-Cbl) were tested. In one series of experiments, solutions containing ethanol, propylene glycol, or both ethanol and propylene glycol were challenged with 20 mg/ml Me-Cbl. In another series of experiments, the same solutions were challenged with 50 mg/ml Me-Cbl. The conditions were the same as those described for CN-Cbl. In both series, the excipients included: (a) 15% ethanol; (b) 20% ethanol; (c) 20% propylene glycol; (d) 40% propylene glycol; (e) 15% ethanol and 20% propylene glycol; and (f) 20% ethanol and 40% propylene glycol. Following suitable dilution, the absorbance at A340 was measured on Day 0, Day 1, and Day 2 (Table 7).

- Conc of Me-Cbl ([1]; challenge 20 mg/mL, ethanol 0%, PG 0%, Day 0): 17180 µg/mL
- Conc of Me-Cbl ([1]; challenge 20 mg/mL, ethanol 0%, PG 0%, Day 0 reading): 12780 µM
- Conc of Me-Cbl ([1]; challenge 20 mg/mL, ethanol 0%, PG 0%, Day 1): 14030 µg/mL
- Conc of Me-Cbl ([1]; challenge 20 mg/mL, ethanol 0%, PG 0%, Day 3): 13180 µg/mL
- Conc of Me-Cbl ([1]; challenge 20 mg/mL, ethanol 0%, PG 20%, Day 3): 23370 µg/mL
- Conc of Me-Cbl ([1]; challenge 20 mg/mL, ethanol 0%, PG 40%, Day 0): 23940 µg/mL
- Conc of Me-Cbl ([1]; challenge 20 mg/mL, ethanol 0%, PG 40%, Day 1): 24340 µg/mL
- Conc of Me-Cbl ([1]; challenge 20 mg/mL, ethanol 0%, PG 40%, Day 3): 24500 µg/mL
- Conc of Me-Cbl ([1]; challenge 20 mg/mL, ethanol 15%, PG 0%, Day 0): 22800 µg/mL
- Conc of Me-Cbl ([1]; challenge 20 mg/mL, ethanol 15%, PG 0%, Day 0 reading): 16960 µM
- Conc of Me-Cbl ([1]; challenge 20 mg/mL, ethanol 15%, PG 0%, Day 1): 12530 µg/mL
- Conc of Me-Cbl ([1]; challenge 20 mg/mL, ethanol 15%, PG 0%, Day 3): 11120 µg/mL
- Conc of Me-Cbl ([1]; challenge 20 mg/mL, ethanol 15%, PG 20%, Day 0): 22720 µg/mL
- Conc of Me-Cbl ([1]; challenge 20 mg/mL, ethanol 15%, PG 20%, Day 0 reading): 16900 µM
- Conc of Me-Cbl ([1]; challenge 20 mg/mL, ethanol 15%, PG 20%, Day 1): 23450 µg/mL
- Conc of Me-Cbl ([1]; challenge 20 mg/mL, ethanol 15%, PG 20%, Day 3): 21910 µg/mL
- Conc of Me-Cbl ([1]; challenge 20 mg/mL, ethanol 20%, PG 0%, Day 0): 23130 µg/mL
- Conc of Me-Cbl ([1]; challenge 20 mg/mL, ethanol 20%, PG 0%, Day 0 reading): 17200 µM
- Conc of Me-Cbl ([1]; challenge 20 mg/mL, ethanol 20%, PG 0%, Day 1): 9180 µg/mL
- Conc of Me-Cbl ([1]; challenge 20 mg/mL, ethanol 20%, PG 0%, Day 3): 9180 µg/mL
- Conc of Me-Cbl ([1]; challenge 20 mg/mL, ethanol 20%, PG 40%, Day 0 reading): 16960 µM
- Conc of Me-Cbl ([1]; challenge 20 mg/mL, ethanol 20%, PG 40%, Day 1): 23860 µg/mL
- Conc of Me-Cbl ([1]; challenge 20 mg/mL, ethanol 20%, PG 40%, Day 3): 24100 µg/mL
- Conc of Me-Cbl ([1]; challenge 50 mg/mL, ethanol 0%, PG 0%, Day 0): 12660 µg/mL
- Conc of Me-Cbl ([1]; challenge 50 mg/mL, ethanol 0%, PG 0%, Day 0 reading): 9410 µM
- Conc of Me-Cbl ([1]; challenge 50 mg/mL, ethanol 0%, PG 0%, Day 1): 12860 µg/mL
- Conc of Me-Cbl ([1]; challenge 50 mg/mL, ethanol 0%, PG 0%, Day 3): 12860 µg/mL
- Conc of Me-Cbl ([1]; challenge 50 mg/mL, ethanol 0%, PG 20%, Day 0): 58220 µg/mL
- Conc of Me-Cbl ([1]; challenge 50 mg/mL, ethanol 0%, PG 20%, Day 0 reading): 43310 µM
- Conc of Me-Cbl ([1]; challenge 50 mg/mL, ethanol 0%, PG 20%, Day 1): 17990 µg/mL
- Conc of Me-Cbl ([1]; challenge 50 mg/mL, ethanol 0%, PG 20%, Day 3): 17790 µg/mL
- Conc of Me-Cbl ([1]; challenge 50 mg/mL, ethanol 0%, PG 40%, Day 0): 57210 µg/mL
- Conc of Me-Cbl ([1]; challenge 50 mg/mL, ethanol 0%, PG 40%, Day 0 reading): 42560 µM
- Conc of Me-Cbl ([1]; challenge 50 mg/mL, ethanol 0%, PG 40%, Day 1): 23210 µg/mL
- Conc of Me-Cbl ([1]; challenge 50 mg/mL, ethanol 0%, PG 40%, Day 3): 22160 µg/mL
- Conc of Me-Cbl ([1]; challenge 50 mg/mL, ethanol 15%, PG 0%, Day 0): 56610 µg/mL
- Conc of Me-Cbl ([1]; challenge 50 mg/mL, ethanol 15%, PG 0%, Day 0 reading): 42110 µM
- Conc of Me-Cbl ([1]; challenge 50 mg/mL, ethanol 15%, PG 0%, Day 1): 11930 µg/mL
- Conc of Me-Cbl ([1]; challenge 50 mg/mL, ethanol 15%, PG 0%, Day 3): 11320 µg/mL
- Conc of Me-Cbl ([1]; challenge 50 mg/mL, ethanol 15%, PG 20%, Day 0): 56610 µg/mL
- Conc of Me-Cbl ([1]; challenge 50 mg/mL, ethanol 15%, PG 20%, Day 0 reading): 42110 µM
- Conc of Me-Cbl ([1]; challenge 50 mg/mL, ethanol 15%, PG 20%, Day 1): 15490 µg/mL
- Conc of Me-Cbl ([1]; challenge 50 mg/mL, ethanol 15%, PG 20%, Day 3): 15450 µg/mL
- Conc of Me-Cbl ([1]; challenge 50 mg/mL, ethanol 20%, PG 0%, Day 0): 58020 µg/mL
- Conc of Me-Cbl ([1]; challenge 50 mg/mL, ethanol 20%, PG 0%, Day 0 reading): 43160 µM
- Conc of Me-Cbl ([1]; challenge 50 mg/mL, ethanol 20%, PG 0%, Day 3): 10350 µg/mL
- Conc of Me-Cbl ([1]; challenge 50 mg/mL, ethanol 20%, PG 40%, Day 1): 51150 µg/mL
- Conc of Me-Cbl ([1]; challenge 50 mg/mL, ethanol 20%, PG 40%, Day 3): 48120 µg/mL
- Conc of Me-Cbl ([2]; challenge 20 mg/mL, ethanol 0%, PG 20%, Day 0): 23610 µg/mL
- Conc of Me-Cbl ([2]; challenge 20 mg/mL, ethanol 0%, PG 20%, Day 0 reading): 17560 µM
- Conc of Me-Cbl ([2]; challenge 20 mg/mL, ethanol 0%, PG 20%, Day 1): 24020 µg/mL
- Conc of Me-Cbl ([2]; challenge 20 mg/mL, ethanol 0%, PG 40%, Day 0 reading): 17800 µM
- Conc of Me-Cbl ([2]; challenge 20 mg/mL, ethanol 20%, PG 40%, Day 0): 22800 µg/mL
- Conc of Me-Cbl ([2]; challenge 50 mg/mL, ethanol 20%, PG 0%, Day 1): 10470 µg/mL
- Conc of Me-Cbl ([2]; challenge 50 mg/mL, ethanol 20%, PG 40%, Day 0): 57620 µg/mL
- Conc of Me-Cbl ([2]; challenge 50 mg/mL, ethanol 20%, PG 40%, Day 0 reading): 42860 µM
SMILES: C/C1=C2/[N-][C@H]([C@H](CC(N)=O)[C@@]2(C)CCC(=O)NC[C@H](C)OP(=O)([O-])O[C@H]2[C@@H](O)[C@@H](n3cnc4cc(C)c(C)cc43)O[C@@H]2CO)[C@]2(C)N=C(/C(C)=C3N=C(/C=C4N=C1[C@@H](CCC(N)=O)C\4(C)C)[C@@H](CCC(N)=O)[C@]\3(C)CC(N)=O)[C@@H](CCC(N)=O)[C@]2(C)CC(N)=O.[CH3-].[Co+3] [Me-Cbl, methylcobalamin]

From US20080039422A1, “Vitamin B12-Containing Compositions and Methods of Use” (Transition Therapeutics Inc., priority 2004, published 2008)
